Where two headings read alike, the source gives them in different places.
Key:
mouse model of SCA = settings: given with a RyR inhibitor; cited from earlier work
INS-1 832/13 cells = assay: Cytosolic calcium levels by Fura-2AM in INS-1 832/13 cells challenged with thapsigargin; assay type: cell-based; settings: range of concentrations, thapsigargin 1 μM added, FIGS. 5 and 6
Description: INS-1 832/13 cells were treated with JTV519 or JTV519-oxidized over a range of concentrations. Cytoplasmic calcium levels were measured by Fura-2AM calcium indicator over a period of minutes. Thapsigargin (1 μM) was added at the time point indicated by an arrow (n=6, the experiment was repeated 6 independent times) on FIGS. 5 and 6.

[1] = Pharmacokinetic study of JTV519 in CD1 mice (UPLC-MS/MS); assay type: in vivo; settings: for AUC(0-inf) / Cmax / half-life / Kp: CD-1 mouse; for Kp: read-out: AUC ratio (with plasma)
Description: To study the pharmacokinetics of JTV519, the compound was synthesized as the HCl salt and formulated as a clear solution in 20% HP-β-CD in saline and intraperitoneally injected into CD1 mice. Samples of blood and pancreas tissue and whole brain and heart organs were collected from the mice and analyzed.
An ultra-performance liquid chromatography-tandem mass spectrometry (UPLC-MS/MS) method was developed to determine sample concentrations in the samples. Mass spectrometric analysis was performed on a Waters Xevo TQ-S triple quadrupole instrument using electrospray ionization in positive mode with the selected reaction monitoring (SRM). The MS/MS parameters were optimized by infusion compounds. The separation was performed on an Acquity BEH C18 column (50×2.1 mm, 1.7μ) using a Waters Acquity UPLC system with 0.6 mL/min flow rate and gradient elution. The column temperature was maintained at 60° C. The calibration standards (1.0-5000 ng/mL) and quality control samples were prepared in the blank mouse plasma. 10 μL plasma samples were mixed with 200 μL internal standard in acetonitrile to precipitate proteins in a 96-well plate. 1.0 μL supernatant was injected for the UPLC-MS/MS analysis

INS-1 823/13 cells = assay: Thapsigargin-mediated cell death (caspase 3/7-Glo luminescence); assay type: cell-based; settings: pretreated 24 hours, then 0.5 nM thapsigargin overnight; FIGS. 7-9
Text: (§1) A Caspase 3/7 assay (Promega, Madison, Wis.) was utilized to measure caspase-3 and -7 activities in various cell lines. The assay provides a proluminescent caspase-3/7 substrate, which contains the tetrapeptide sequence DEVD. This caspase-3/7 substrate can be added directly to cell lysates. The substrate is cleaved to release an aminoluciferin, which is a substrate for luciferase used in the production of light. The signal is proportional to caspase-3/7 activity. The stabilized luciferase and proprietary buffer system improve assay performance across a wide range of assay conditions, and the assay is less likely to be affected by compound interference unlike fluorescent- or colorimetric-based assays
The pathway leading to calpain-2 activation provides potential therapeutic targets for Wolfram syndrome, such as leakage of ER calcium to the cytosol. To test this concept, a small-scale screen was performed to identify chemical compounds that could prevent cell death mediated by thapsigargin, a known inhibitor for ER calcium ATPase. INS-1 823/13 cells were pretreated with […] in media containing 0.5 nM of thapsigargin (TG) overnight. Apoptosis was detected by caspase 3/7-Glo luminescence.

WFS1 gene knockout mice = assay: Motor function study, 90° inclined screen test; assay type: in vivo; settings: i.p. 15 mg/kg/day, 5 days per week, 6 weeks, vs control mice, FIG. 11
Description: WFS1 gene knockout mice, a mouse model of Wolfram syndrome, were treated with JTV519 (i.p. injections, 15 mg/kg/day, 5 days per week) or saline after they become 6 weeks old for 6 weeks (5 female mice for each group). Littermate wild-type control mice were treated by saline (VEH) for 6 weeks (3 female mice). Motor functions of the WFS1 knockout were evaluated using a 90° inclined screen test.
For the 90° inclined screen test, each mouse was placed on top of an elevated (47 cm above the floor) wire mesh grid (16 squares per 10 cm) that was inclined to 90°. Each mouse was placed in the middle of the screen with its head oriented down and was timed for how long it remained on the screen and how long it took to climb to the top of the screen.

[2] = system: WFS1 depleted INS-1 832/13 cells; assay: Cell death in WFS1 depleted INS-1 832/13 cells (Caspase 3/7 activation); assay type: cell-based; settings: pretreated 24 h with various concentrations, then DOX 48 h to deplete WFS1; FIGS. 3 and 4
Text: as §1
INS-1 832/13 cells in which WFS1 expression could be depleted by doxycycline (DOX)-inducible expression of shWFS1 were pretreated with or without various concentrations of JTV519 or oxidized JTV519 for 24 h and then treated with DOX for 48 h to deplete WFS1 and induce cell death. Apoptosis was measured by monitoring Caspase 3/7 activation.

INS-1E cells = assay: Cytokine-induced cell death in INS-1E cells (caspase 3/7 activity assay); assay type: cell-based; settings: 1 μM-50 μM for 24 hours, then IL-1β and IFN-γ 50 ng/ml for 24 hours; FIG. 10
Text: as §1
To determine whether JTV519 can prevent ER calcium depletion and confer protection against ER stress-mediated cell death in a cell model of type 1 diabetes. INS-1E cells were pre-treated with 1 μM-50 μM of JTV519 for 24 hours then stressed for 24 hours with cytokines (IL-1β and IFN-γ 50 ng/ml). Apoptotic cell death was measured via caspase 3/7 activity assay. […] Data are expressed as mean±SEM from three independent experiments. *p<0.05 compared to cytokine treated cells unpaired t-test.

[3] = conclusion from the pharmacokinetic study

O=C1CN(/N=C/c2ccc(-c3ccc([N+](=O)[O-])cc3)o2)C(=O)[N-]1.[Na+] [Dantrolene, 1-[[5-(4-nitrophenyl)-2-furyl]methylideneamino]imidazolidine-2,4-dione]
age dependent deficit of motor coordination (mouse model of SCA): ameliorated the age dependent deficit of motor coordination

COc1ccc2c(c1)CN(C(=O)CCN1CCC(Cc3ccccc3)CC1)CCS2 [JTV519, 3-(4-benzyl-1-piperidinyl)-1-(7-methoxy-2,3-dihydro-1,4-benzothiazepin-4(5H)-yl)-1-propanone]
cytosolic calcium levels (INS-1 832/13 cells): decreased cytosolic calcium levels
AUC(0-inf) ([1]; brain, ip 30 mg/kg, n = 3): 10100 ng·h/mL
Cmax ([1]; brain, ip 30 mg/kg, n = 3): 5130 ng/mL
half-life ([1]; brain, ip 30 mg/kg, n = 3): 5.1 h
Kp ([1]; brain, ip 30 mg/kg, n = 3): 2.9
permeability [1, 3]: good
solubility [1, 3]: good
blood brain barrier passage ([1]; conclusion from the pharmacokinetic study, ip 30 mg/kg, mice): passed the blood brain barrier
AUC(0-inf) ([1]; heart, ip 30 mg/kg, n = 3): 29200 ng·h/mL
Cmax ([1]; heart, ip 30 mg/kg, n = 3): 14300 ng/mL
half-life ([1]; heart, ip 30 mg/kg, n = 3): 4 h
Kp ([1]; heart, ip 30 mg/kg, n = 3): 8.4
AUC(0-inf) ([1]; pancreas, ip 30 mg/kg, n = 3): 146000 ng·h/mL
Cmax ([1]; pancreas, ip 30 mg/kg, n = 3): 105000 ng/mL
half-life ([1]; pancreas, ip 30 mg/kg, n = 3): 4.5 h
Kp ([1]; pancreas, ip 30 mg/kg, n = 3): 42
AUC(0-inf) ([1]; plasma, ip 30 mg/kg): 3460 ng·h/mL
half-life ([1]; plasma, ip 30 mg/kg): 7.1 h
Cmax ([1]; plasma, ip 30 mg/kg, HCl salt in 20% HP-β-CD in saline): 1810 ng/mL
thapsigargin mediated cell death (apoptosis, caspase 3/7-Glo) (INS-1 823/13 cells): did not significantly suppress thapsigargin mediated cell death
motor functions (time to reach the top of the screen) (WFS1 gene knockout mice): improved motor functions
cell death (apoptosis, Caspase 3/7 activation) [2]: suppress cell death
cytokine-induced cell death (caspase 3/7 activity) (INS-1E cells): protects INS-1E cells from cytokine-induced cell death

Source: patent US11426415B2, “Treatment for Wolfram syndrome and other endoplasmic reticulum stress disorders” (Washington University, priority 2017, dated 2022)
